Measured values as given in publication PMC12147132 (2025).
Blank lines part the entries; values can stand above or below the molecule they belong to.

Tests used:
[1] = test system: AD-aptamer subunits L1F + L2Q (DNA, aptamer) ATAACGCATTTTGTTATGCGGAGGAAGGTAT/AATGCGTTATTAGAATT/ATACCTGGGGGAGTATTAACATGTTCCATCTT/TTAAATCAAGATGGAAC; test: not given in the source (Figure S2)
[2] = test system: D1/D2 (AD-stabilized Mg2+-dependent DNAzyme; same sequences as constituent AB') (DNA, aptamer) GTCCTCAGCGATTACTATGCGGAGGAAGGTAT/ATACCTGGGGGAGTATTAGTACACCCATGTTCCTGA; test: DNAzyme substrate cleavage fluorescence; settings: qualitative, AD 3-5 mM with ADA present
[3] = test system: AD-aptamer subunits L1F + L2Q (DNA, aptamer) ATAACGCATTTTGTTATGCGGAGGAAGGTAT/AATGCGTTATTAGAATT/ATACCTGGGGGAGTATTAACATGTTCCATCTT/TTAAATCAAGATGGAAC; test: not stated in material (Figure S4)
[4] = test system: BA' (DNA, aptamer) CTGTTCAGCGATTACTATGCGGAGGAAGGTAT/ATACCTGGGGGAGTATTAGTACACCCATGTTTCAGT; test: DNAzyme substrate cleavage fluorescence; settings: Mg2+; qualitative; AD 4-5 mM with ADA present
[5] = test system: AA' (DNA, aptamer) GTCCTCAGCGATTACTATGCGGAGGAAGGTAT/ATACCTGGGGGAGTATTAGTACACCCATGTTTCAGT; test: DNAzyme substrate cleavage fluorescence; settings: Mg2+; qualitative; AD 4-5 mM with ADA present
[6] = test system: BB' (DNA, aptamer) CTGTTCAGCGATTACTATGCGGAGGAAGGTAT/ATACCTGGGGGAGTATTAGTACACCCATGTTCCTGA; test: DNAzyme substrate cleavage fluorescence; settings: Mg2+; qualitative; AD 4-5 mM with ADA present
[7] = highest concentration not in material

SMILES: Cc1cn([C@H]2C[C@H](O)[C@@H](COP(=O)(O)OP(=O)(O)OP(=O)(O)O)O2)c(=O)[nH]c1=O
binding [1, 7]: no

SMILES: Nc1nc2c(ncn2[C@@H]2O[C@H](COP(=O)(O)OP(=O)(O)OP(=O)(O)O)[C@@H](O)[C@H]2O)c(=O)[nH]1
binding [1, 7]: no

SMILES: Nc1ncnc2c1ncn2[C@@H]1O[C@H](CO)[C@@H](O)[C@H]1O
binding [2]: yes
Kd ([3]; not perturbed by ADA or inosine): 11.8 ± 2.3 µM
binding [4]: yes
binding [5]: yes
binding [6]: yes

SMILES: Nc1ncnc2c1ncn2[C@@H]1O[C@H](COP(=O)(O)OP(=O)(O)O)[C@@H](O)[C@H]1O
binding ([1]; qualitative): yes

SMILES: O=c1[nH]cnc2c1ncn2[C@@H]1O[C@H](CO)[C@@H](O)[C@H]1O
binding [3, 7]: no

SMILES: O=c1ccn([C@@H]2O[C@H](COP(=O)(O)OP(=O)(O)OP(=O)(O)O)[C@@H](O)[C@H]2O)c(=O)[nH]1
binding [1, 7]: no

Now from value to molecule:

binding [1, 7]: no
SMILES: Nc1ccn([C@@H]2O[C@H](COP(=O)(O)OP(=O)(O)OP(=O)(O)O)[C@@H](O)[C@H]2O)c(=O)n1

binding ([1]; qualitative): yes
SMILES: Nc1ncnc2c1ncn2[C@@H]1O[C@H](COP(=O)(O)O)[C@@H](O)[C@H]1O

binding ([1]; qualitative): yes
SMILES: Nc1ncnc2c1ncn2[C@@H]1O[C@H](COP(=O)(O)OP(=O)(O)OP(=O)(O)O)[C@@H](O)[C@H]1O
